These results are taken from patent US11236094B2, “Substituted pyrrolo[2,1-f][1,2,4]triazines as FGFR inhibitors” (CSPC ZHONGQI PHARMACEUTICAL TECHNOLOGY (SHIJIAZHUANG) CO., …, priority 2017, dated 2022).

By IC50 is commonly meant the concentration needed to halve the response being measured. Broadly, the AUC is concentration integrated over time. Broadly, the clearance is a measure of how efficiently the substance is removed, as volume per time. In general, bioavailability refers to dose-corrected exposure relative to a reference, in per cent.

One data set has as its target human FGFR1 (Homo sapiens, UniProt P11362). Put plainly: 33P isotope-labeled kinase activity test, wild-type FGFR1. The settings on record: 33P-ATP 5 μM, 120 minutes.
Another data set has as its target human FGFR4 (Homo sapiens, UniProt P22455). Put plainly: 33P isotope-labeled kinase activity test, wild-type FGFR4. The settings on record: 33P-ATP 100 μM, 120 minutes.
A short description of data set [1]: Pharmacokinetics in mice in vivo. The conditions noted are these: female, mouse, plasma, Balb/c mice; for AUC: read-out: Area under the curve, AUC; for clearance: read-out: Clearance rate; for half-life: read-out: Half-life T1/2 (converted); for bioavailability: read-out: Bioavailability F. The method, then: Assay 3: Evaluation of Compounds' Pharmacokinetics
Experiment purpose: To test the pharmacokinetics of the compound in mice in vivo.
The pharmacokinetics profile in rodents after the intravenous injection and the oral administration of the compound was tested using a standard protocol. In experiments, the candidate compound was prepared as a clear solution, which was administered to the mice as a single intravenous injection and as an oral administration. The medium for the intravenous injection was 10% DMSO/10% solutol/80% water, and the medium for the oral administration was 0.5% sodium carboxymethylcellulose+0.2% Tween. The whole blood samples within 24 hours were collected. All blood samples were added to the well-labeled plastic centrifuge tubes, to which 0.5M K2-EDTA anticoagulant was added in advance. After the collection of blood samples, the blood samples were centrifuged at 4° C. at 3000 g for 10 minutes. The supernatant plasma was collected, promptly placed in the dry ice, and kept at a temperature of −20° C. or lower. The LC-MS/MS analysis method was used to quantitatively analyze the blood concentration, and the pharmacokinetics parameters, such as peak concentration, peak time, clearance rate, half-life, area under the curve and bioavailability were calculated.

The structures appear in SMILES notation. Read-outs that look alike come from different tables or passages of the source.

Sequence of human FGFR1 (P11362 22-822): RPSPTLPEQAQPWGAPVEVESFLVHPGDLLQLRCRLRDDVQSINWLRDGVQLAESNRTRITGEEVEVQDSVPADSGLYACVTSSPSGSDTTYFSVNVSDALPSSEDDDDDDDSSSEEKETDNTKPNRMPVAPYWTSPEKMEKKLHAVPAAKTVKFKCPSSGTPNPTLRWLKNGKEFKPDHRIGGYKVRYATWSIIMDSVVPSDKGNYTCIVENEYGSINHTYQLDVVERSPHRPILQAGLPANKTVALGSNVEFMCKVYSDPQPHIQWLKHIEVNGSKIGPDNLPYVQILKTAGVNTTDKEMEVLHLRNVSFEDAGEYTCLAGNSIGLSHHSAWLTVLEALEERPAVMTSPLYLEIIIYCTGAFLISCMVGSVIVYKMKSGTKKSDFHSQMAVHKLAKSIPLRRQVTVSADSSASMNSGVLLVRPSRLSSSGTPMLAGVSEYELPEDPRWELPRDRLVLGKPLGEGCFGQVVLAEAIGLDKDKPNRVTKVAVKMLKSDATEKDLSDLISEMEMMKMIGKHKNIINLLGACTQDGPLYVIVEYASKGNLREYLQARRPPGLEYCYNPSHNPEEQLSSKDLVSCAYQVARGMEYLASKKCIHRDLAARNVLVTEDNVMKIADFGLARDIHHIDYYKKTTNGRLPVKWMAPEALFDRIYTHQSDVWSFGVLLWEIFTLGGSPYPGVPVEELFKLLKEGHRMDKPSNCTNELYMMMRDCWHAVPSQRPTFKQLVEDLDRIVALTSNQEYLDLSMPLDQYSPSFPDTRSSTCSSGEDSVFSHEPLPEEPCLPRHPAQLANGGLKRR
Sequence of human FGFR4 (P22455 22-802): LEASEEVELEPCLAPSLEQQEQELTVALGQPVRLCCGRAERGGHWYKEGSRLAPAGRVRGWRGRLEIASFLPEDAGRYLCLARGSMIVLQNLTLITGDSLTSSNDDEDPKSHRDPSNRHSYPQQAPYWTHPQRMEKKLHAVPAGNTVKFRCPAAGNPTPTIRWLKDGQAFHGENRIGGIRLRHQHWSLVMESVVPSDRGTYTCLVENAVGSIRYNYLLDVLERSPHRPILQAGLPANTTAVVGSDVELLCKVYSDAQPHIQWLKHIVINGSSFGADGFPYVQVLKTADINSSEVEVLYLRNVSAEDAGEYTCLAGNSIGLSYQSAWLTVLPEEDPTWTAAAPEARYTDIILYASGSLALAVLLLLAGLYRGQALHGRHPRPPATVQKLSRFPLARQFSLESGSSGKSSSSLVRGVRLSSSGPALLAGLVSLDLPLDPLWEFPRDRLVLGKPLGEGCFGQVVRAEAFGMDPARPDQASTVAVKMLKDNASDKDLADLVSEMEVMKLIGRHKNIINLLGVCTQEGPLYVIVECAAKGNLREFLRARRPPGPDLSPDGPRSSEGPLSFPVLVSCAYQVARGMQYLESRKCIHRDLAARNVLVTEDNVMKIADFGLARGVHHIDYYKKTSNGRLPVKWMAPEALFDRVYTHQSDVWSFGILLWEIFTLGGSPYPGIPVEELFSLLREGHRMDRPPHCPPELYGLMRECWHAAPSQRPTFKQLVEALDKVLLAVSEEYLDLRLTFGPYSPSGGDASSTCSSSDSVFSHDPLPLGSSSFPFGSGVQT
From the text for human FGFR1: (§1) Assay 1: Evaluation of Wild-Type Kinase Inhibitory Activity In Vitro
From the text for human FGFR4: as §1

Turning to `C=CC(=O)N1CCC(c2cc(-c3sc4c(OC)cc(C)cc4c3C)c3c(N)ncnn23)C1` (single isomer, unassigned) [Example 7], the IC50 amounted to 0.7 nM at human FGFR1 (IC50 FGFR1, wild-type kinase) and 8.5 nM at human FGFR4.

As to `C=CC(=O)N1CCC(c2cc(-c3sc4c(OC)cc(C)cc4c3C)c3c(N)ncnn23)C1` (single isomer, unassigned) [Example 8], the IC50 against human FGFR1 (IC50 FGFR1, wild-type kinase) was 0.1 nM; on human FGFR4, 0.7 nM.

Turning to `COc1cc(C)cc2cc(-c3cc(C4CCN(C(=O)/C=C/CN(C)C)C4)n4ncnc(N)c34)sc12` (single isomer, unassigned) [Example 12], the 50% inhibitory concentration (IC50) at human FGFR1 (IC50 FGFR1, wild-type kinase) turned out to be 0.2 nM; against human FGFR4 it was 2.6 nM.

For the molecule `COc1cc(C)cc2cc(-c3cc(C4CCN(C(=O)/C=C/CN(C)C)C4)n4ncnc(N)c34)sc12` (single isomer, unassigned) [Example 13], the IC50 on human FGFR1 (IC50 FGFR1, wild-type kinase) stood at 0.6 nM; at human FGFR4, 8.7 nM.

With `COc1cc(C)cc2cc(-c3cc(C4CCN(C(=O)CC#N)C4)n4ncnc(N)c34)sc12` (single isomer, unassigned) [Example 15], the IC50 against human FGFR1 (IC50 FGFR1, wild-type kinase) was 1.5 nM. Moreover, in data set [1] (intravenous injection (3 npk)), the AUC was 2.03 µM·h, the clearance is 52 mL/min/kg and the half-life is 48 min. In data set [1] (oral administration (10 npk)), the AUC amounted to 4.8 µM·h and the bioavailability is 70%. This molecule also yielded an IC50 against human FGFR4 of 6.2 nM.

Take `COc1cc(C)cc2cc(-c3cc(C4CCN(C(=O)CC#N)C4)n4ncnc(N)c34)sc12` (single isomer, unassigned) [Example 16]: the IC50 on human FGFR1 (IC50 FGFR1, wild-type kinase) came out at 0.8 nM; against human FGFR4, 5.3 nM.

`C=CC(=O)N1CCC(c2c(COC)c(-c3cc4cc(C)cc(OC)c4s3)c3c(N)ncnn23)C1` (single isomer, unassigned) [Example 18]: the IC50 at human FGFR1 (IC50 FGFR1, wild-type kinase) turned out to be 0.1 nM; against human FGFR4 it was 0.2 nM.

In the case of `C=CC(=O)N1CCC(c2c(COC)c(-c3cc4cc(C)cc(OC)c4s3)c3c(N)ncnn23)C1` (single isomer, unassigned) [Example 19], the IC50 at human FGFR1 (read-out: IC50 FGFR1, wild-type kinase) was 0.1 nM; against human FGFR4 it was 0.1 nM.

With `C=CC(=O)N1CCC(c2cc(-c3cc4cc(C)cc(OC)c4s3)c3c(N)ncnn23)C1` (centres unmarked) [Example 1], the IC50 at human FGFR1 (IC50 FGFR1, wild-type kinase) was 0.4 nM; at human FGFR4, 0.9 nM.

With `C=CC(=O)N1CC[C@@H](c2cc(-c3cc4cc(Cl)cc(OC)c4s3)c3c(N)ncnn23)C1` [Example 4], the IC50 was determined as 0.6 nM at human FGFR1 (IC50 FGFR1, wild-type kinase) and 4.1 nM on human FGFR4.

Consider `C=CC(=O)N1CC[C@H](c2cc(-c3cc4cc(Cl)cc(OC)c4s3)c3c(N)ncnn23)C1` [Example 5], for which the IC50 against human FGFR1 (IC50 FGFR1, wild-type kinase) amounted to 0.3 nM; on human FGFR4 it was 0.7 nM.

With `C=CC(=O)N1CCCC(c2cc(-c3cc4cc(C)cc(OC)c4s3)c3c(N)ncnn23)C1` (centres unmarked) [Example 6], the IC50 on human FGFR1 (IC50 FGFR1, wild-type kinase) was 1.7 nM; on human FGFR4, 5.4 nM.

Take `C=CC(=O)N1CC[C@H](c2cc(-c3sc4c(OC)cc(Cl)cc4c3C)c3c(N)ncnn23)C1` [Example 9]: the IC50 at human FGFR1 (IC50 FGFR1, wild-type kinase) is 0.7 nM; against human FGFR4, 3.3 nM.

As to `CC#CC(=O)N1CC[C@@H](c2cc(-c3cc4cc(C)cc(OC)c4s3)c3c(N)ncnn23)C1` [Example 10], the IC50 turned out to be 0.2 nM on human FGFR1 (IC50 FGFR1, wild-type kinase) and 1.5 nM against human FGFR4.

Consider `CC#CC(=O)N1CC[C@H](c2cc(-c3cc4cc(C)cc(OC)c4s3)c3c(N)ncnn23)C1` [Example 11], for which the IC50 was 0.1 nM against human FGFR1 (IC50 FGFR1, wild-type kinase) and 0.1 nM against human FGFR4.

Regarding `C=CC(=O)N1CCC(O)(c2cc(-c3cc4cc(C)cc(OC)c4s3)c3c(N)ncnn23)C1` (centres unmarked) [Example 14], the IC50 at human FGFR1 (IC50 FGFR1, wild-type kinase) was determined as 0.8 nM; on human FGFR4 it was 6.6 nM.

Consider `C=CC(=O)N1CC[C@H](c2cc(-c3nc4cc(OC)cc(OC)c4s3)c3c(N)ncnn23)C1` [Example 17], for which the IC50 on human FGFR1 (IC50 FGFR1, wild-type kinase) was greater than 10000 nM; at human FGFR4, greater than 10000 nM.

Turning to `CC#CC(=O)N1CCC(c2c(COC)c(-c3cc4cc(C)cc(OC)c4s3)c3c(N)ncnn23)C1` (centres unmarked) [Example 20], the IC50 against human FGFR1 (IC50 FGFR1, wild-type kinase) was determined as 0.2 nM; against human FGFR4 it was 0.8 nM.

As to `CCC(=O)N1CC[C@H](c2cc(-c3cc4c(F)c(OC)cc(OC)c4s3)c3c(N)ncnn23)C1` [Example 21], the IC50 against human FGFR1 (IC50 FGFR1, wild-type kinase) is 6.6 nM; at human FGFR4, 138 nM.

With `C=CC(=O)N1CC[C@@H](c2cc(-c3cc4c(F)c(OC)cc(OC)c4s3)c3c(N)ncnn23)C1` [Example 22], the IC50 was 1.5 nM against human FGFR1 (IC50 FGFR1, wild-type kinase) and 9.9 nM against human FGFR4.

As for `C=CC(=O)N1CC[C@H](c2cc(-c3cc4c(F)c(OC)cc(OC)c4s3)c3c(N)ncnn23)C1` [Example 23], the IC50 against human FGFR1 (IC50 FGFR1, wild-type kinase) is 0.2 nM; on human FGFR4 it was 0.2 nM.

In the case of `CCC(=O)N1CC[C@@H](c2cc(-c3cc4c(F)c(OC)cc(OC)c4s3)c3c(N)ncnn23)C1` [Example 24], the IC50 on human FGFR1 (IC50 FGFR1, wild-type kinase) worked out at 2.2 nM; at human FGFR4, 40 nM.

On to `C=CC(=O)N1CC[C@H](c2cc(-c3cc4cccc(OC)c4o3)c3c(N)ncnn23)C1` [Example 25], for which the IC50 on human FGFR1 (IC50 FGFR1, wild-type kinase) is 250 nM; against human FGFR4, 477 nM.

Regarding `CCC(=O)N1CC[C@@H](c2cc(-c3cc4cc(C)cc(OC)c4s3)c3c(N)ncnn23)C1` [Example 26], the IC50 against human FGFR1 (IC50 FGFR1, wild-type kinase) stood at 1.2 nM; against human FGFR4, 4.2 nM.

With `CCC(=O)N1CC[C@H](c2cc(-c3cc4cc(C)cc(OC)c4s3)c3c(N)ncnn23)C1` [Example 27], the IC50 against human FGFR1 (IC50 FGFR1, wild-type kinase) is 4.7 nM; on human FGFR4 it was 67 nM.

For the molecule `CCC(=O)N1CC[C@H](c2cc(-c3nc4cc(OC)cc(OC)c4s3)c3c(N)ncnn23)C1` [Example 28], the IC50 was greater than 10000 nM at human FGFR1 (IC50 FGFR1, wild-type kinase) and greater than 10000 nM at human FGFR4.

Turning to `COc1cc(OC)c2sc(-c3cc([C@@H]4CCN(C(=O)/C=C/CN(C)C)C4)n4ncnc(N)c34)cc2c1F` [Example 29], the 50% inhibitory concentration (IC50) was determined as 0.5 nM on human FGFR1 (IC50 FGFR1, wild-type kinase) and 9.2 nM against human FGFR4.

For the molecule `COc1cc(OC)c2sc(-c3cc([C@H]4CCN(C(=O)/C=C/CN(C)C)C4)n4ncnc(N)c34)cc2c1F` [Example 30], the IC50 against human FGFR1 (IC50 FGFR1, wild-type kinase) is 1.6 nM; on human FGFR4 it was 20 nM.

In the case of `COc1cc(C)cc2cc(-c3cc([C@@H]4CCN(C(=O)/C=C/CN5CCOCC5)C4)n4ncnc(N)c34)sc12` [Example 31], the IC50 against human FGFR1 (IC50 FGFR1, wild-type kinase) is 1.1 nM; at human FGFR4, 9.6 nM.

Consider `COc1cc(C)cc2cc(-c3cc([C@H]4CCN(C(=O)/C=C/CN5CCOCC5)C4)n4ncnc(N)c34)sc12` [Example 32], for which the IC50 against human FGFR1 (IC50 FGFR1, wild-type kinase) amounted to 4.7 nM; against human FGFR4, 80 nM.

In the case of `C=CC(=O)N1CC[C@H](c2cc(-c3cc4cccc(OC)c4s3)c3c(N)ncnn23)C1` [Example 33], the IC50 on human FGFR1 (IC50 FGFR1, wild-type kinase) turned out to be 0.5 nM; on human FGFR4, 0.9 nM.

With `C=CC(=O)N1CC[C@@H](c2cc(-c3nc4cc(OC)cc(OC)c4s3)c3c(N)ncnn23)C1` [Example 34], the IC50 on human FGFR1 (IC50 FGFR1, wild-type kinase) amounted to 126 nM; at human FGFR4 it was 462 nM.

With `C=CC(=O)N1CC[C@H](n2nc(C#Cc3cc(OC)cc(OC)c3)c3c(N)ncnc32)C1` [Reference Example 1, reference compound], in data set [1] (intravenous injection (3 npk)), the AUC came out at 5.29 µM·h, the clearance amounted to 22 mL/min/kg and the half-life is 42 min. For the same molecule, in data set [1] (oral administration (10 npk)), the AUC was 11.9 µM·h and the bioavailability stood at 69%.
